Measurements published in ChEMBL document CHEMBL3991601, “The target landscape of clinical kinase drugs” (Science, 2017).
Active and inactive are the calls of the source.
Also: in the data inactive means no Kd found up to 30 µM.

The molecules below were run against Adenylate kinase 2, mitochondrial (Homo sapiens, UniProt P54819).
In the case of `CC(C)Nc1cc(-c2c[nH]c(C(=O)N[C@H](CO)c3cccc(Cl)c3)c2)c(Cl)cn1` [ULIXERTINIB], the Kd was > 30 µM (inactive).
For `CCCS(=O)(=O)Nc1ccc(F)c(C(=O)c2c[nH]c3ncc(-c4ccc(Cl)cc4)cc23)c1F` [VEMURAFENIB], the Kd was > 30 µM (inactive).
With `CC[C@@H]1C(=O)N(C)c2cnc(Nc3ccc(C(=O)N[C@H]4CC[C@H](N5CCN(CC6CC6)CC5)CC4)cc3OC)nc2N1C(C)C` [VOLASERTIB] the Kd was > 30 µM (inactive).
`CCn1c(=O)c(-c2cc[nH]n2)cc2c(C)nc(N)nc21` [VOXTALISIB] was tested, and the Kd was > 30 µM (inactive).
`O=C(Nc1ccc(-c2ccnc(Nc3ccc(N4CCOCC4)cc3)n2)cc1)C1CCCN1` (stereo not given) [XL-019] was tested, and the Kd was > 30 µM (inactive).

What follows are molecules tested against T1, Serine/threonine-protein kinase A-Raf (Homo sapiens, UniProt P10398).
T1 sequence (P10398 whole entry): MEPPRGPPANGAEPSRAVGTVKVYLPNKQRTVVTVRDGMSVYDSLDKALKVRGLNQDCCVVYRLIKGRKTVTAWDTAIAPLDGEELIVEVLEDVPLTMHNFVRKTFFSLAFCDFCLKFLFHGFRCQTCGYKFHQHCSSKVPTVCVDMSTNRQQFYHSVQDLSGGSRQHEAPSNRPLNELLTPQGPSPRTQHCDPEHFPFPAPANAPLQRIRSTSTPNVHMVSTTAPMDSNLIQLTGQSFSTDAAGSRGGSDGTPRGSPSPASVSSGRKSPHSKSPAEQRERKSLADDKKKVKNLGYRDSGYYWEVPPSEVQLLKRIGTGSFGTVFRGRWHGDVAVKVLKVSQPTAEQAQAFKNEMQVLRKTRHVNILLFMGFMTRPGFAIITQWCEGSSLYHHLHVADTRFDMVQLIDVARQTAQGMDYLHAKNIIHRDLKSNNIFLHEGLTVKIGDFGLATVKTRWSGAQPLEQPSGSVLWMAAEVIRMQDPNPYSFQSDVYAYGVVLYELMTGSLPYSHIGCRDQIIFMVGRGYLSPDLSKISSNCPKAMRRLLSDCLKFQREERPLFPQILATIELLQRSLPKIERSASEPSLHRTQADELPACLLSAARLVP
With `CC(C)Nc1cc(-c2c[nH]c(C(=O)N[C@H](CO)c3cccc(Cl)c3)c2)c(Cl)cn1` [ULIXERTINIB] the Kd was > 30 µM (inactive).
`CCCS(=O)(=O)Nc1ccc(F)c(C(=O)c2c[nH]c3ncc(-c4ccc(Cl)cc4)cc23)c1F` [VEMURAFENIB] was tested, and the Kd was 2.14 µM (active).
In the case of `CC[C@@H]1C(=O)N(C)c2cnc(Nc3ccc(C(=O)N[C@H]4CC[C@H](N5CCN(CC6CC6)CC5)CC4)cc3OC)nc2N1C(C)C` [VOLASERTIB], the Kd was > 30 µM (inactive).
With `CCn1c(=O)c(-c2cc[nH]n2)cc2c(C)nc(N)nc21` [VOXTALISIB] the Kd was > 30 µM (inactive).
With `O=C(Nc1ccc(-c2ccnc(Nc3ccc(N4CCOCC4)cc3)n2)cc1)C1CCCN1` (stereo not given) [XL-019] the Kd was > 30 µM (inactive).

What follows are molecules tested against Cyclin-dependent kinase 1 (Homo sapiens, UniProt P06493).
Sequence of Cyclin-dependent kinase 1 (P06493 whole entry): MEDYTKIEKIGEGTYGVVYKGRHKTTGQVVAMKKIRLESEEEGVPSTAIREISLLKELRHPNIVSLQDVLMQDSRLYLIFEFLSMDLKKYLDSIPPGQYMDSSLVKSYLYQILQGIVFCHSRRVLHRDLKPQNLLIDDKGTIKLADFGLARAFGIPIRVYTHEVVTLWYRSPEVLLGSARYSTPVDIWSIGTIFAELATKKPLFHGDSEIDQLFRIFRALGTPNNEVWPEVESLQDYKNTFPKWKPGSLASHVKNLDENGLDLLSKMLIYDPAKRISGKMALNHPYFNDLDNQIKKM
For `CC(C)Nc1cc(-c2c[nH]c(C(=O)N[C@H](CO)c3cccc(Cl)c3)c2)c(Cl)cn1` [ULIXERTINIB], the Kd was > 30 µM (inactive).
`CCCS(=O)(=O)Nc1ccc(F)c(C(=O)c2c[nH]c3ncc(-c4ccc(Cl)cc4)cc23)c1F` [VEMURAFENIB] was tested, and the Kd was > 30 µM (inactive).
In the case of `CC[C@@H]1C(=O)N(C)c2cnc(Nc3ccc(C(=O)N[C@H]4CC[C@H](N5CCN(CC6CC6)CC5)CC4)cc3OC)nc2N1C(C)C` [VOLASERTIB], the Kd was > 30 µM (inactive).
In the case of `CCn1c(=O)c(-c2cc[nH]n2)cc2c(C)nc(N)nc21` [VOXTALISIB], the Kd was > 30 µM (inactive).
With `O=C(Nc1ccc(-c2ccnc(Nc3ccc(N4CCOCC4)cc3)n2)cc1)C1CCCN1` (stereo not given) [XL-019] the Kd was > 30 µM (inactive).

Each molecule was assayed against T2, Mitogen-activated protein kinase kinase kinase 6 (Homo sapiens, UniProt O95382).
T2 sequence (O95382 whole entry): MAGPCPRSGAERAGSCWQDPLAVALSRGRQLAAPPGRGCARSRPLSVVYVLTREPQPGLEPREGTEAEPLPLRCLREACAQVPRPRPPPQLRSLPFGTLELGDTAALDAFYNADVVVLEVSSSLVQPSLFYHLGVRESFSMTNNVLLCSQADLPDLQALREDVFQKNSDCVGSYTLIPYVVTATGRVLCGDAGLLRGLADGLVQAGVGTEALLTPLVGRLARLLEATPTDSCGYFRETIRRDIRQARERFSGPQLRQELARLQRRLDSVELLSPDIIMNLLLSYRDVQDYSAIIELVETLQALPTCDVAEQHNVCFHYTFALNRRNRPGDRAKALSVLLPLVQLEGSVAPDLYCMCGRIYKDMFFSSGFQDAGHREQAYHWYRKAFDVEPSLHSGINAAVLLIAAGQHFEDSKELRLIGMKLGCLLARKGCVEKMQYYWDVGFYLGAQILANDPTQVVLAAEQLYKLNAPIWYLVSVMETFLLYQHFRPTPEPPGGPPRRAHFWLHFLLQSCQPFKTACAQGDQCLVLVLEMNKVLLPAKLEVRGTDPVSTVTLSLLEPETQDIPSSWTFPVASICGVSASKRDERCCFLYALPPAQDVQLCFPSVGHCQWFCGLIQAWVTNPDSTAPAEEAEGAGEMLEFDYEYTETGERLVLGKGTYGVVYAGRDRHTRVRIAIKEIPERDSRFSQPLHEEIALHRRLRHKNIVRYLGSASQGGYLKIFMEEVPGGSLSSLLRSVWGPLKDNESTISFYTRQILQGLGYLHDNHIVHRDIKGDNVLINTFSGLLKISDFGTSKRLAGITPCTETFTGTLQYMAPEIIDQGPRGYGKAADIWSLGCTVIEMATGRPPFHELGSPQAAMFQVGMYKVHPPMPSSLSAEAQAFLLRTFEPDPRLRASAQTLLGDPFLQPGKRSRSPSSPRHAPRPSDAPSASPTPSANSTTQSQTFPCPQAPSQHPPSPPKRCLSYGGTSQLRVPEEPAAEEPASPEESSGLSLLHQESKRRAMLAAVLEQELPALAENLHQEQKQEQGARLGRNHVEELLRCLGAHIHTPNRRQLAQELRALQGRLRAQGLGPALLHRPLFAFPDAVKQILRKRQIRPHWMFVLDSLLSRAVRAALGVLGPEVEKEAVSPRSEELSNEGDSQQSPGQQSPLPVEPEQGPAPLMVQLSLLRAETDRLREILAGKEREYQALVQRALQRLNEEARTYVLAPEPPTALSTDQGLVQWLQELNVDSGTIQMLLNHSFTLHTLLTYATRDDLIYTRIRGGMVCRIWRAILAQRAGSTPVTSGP
For `CC(C)Nc1cc(-c2c[nH]c(C(=O)N[C@H](CO)c3cccc(Cl)c3)c2)c(Cl)cn1` [ULIXERTINIB], the Kd was > 30 µM (inactive).
With `CCCS(=O)(=O)Nc1ccc(F)c(C(=O)c2c[nH]c3ncc(-c4ccc(Cl)cc4)cc23)c1F` [VEMURAFENIB] the Kd was > 30 µM (inactive).
With `CC[C@@H]1C(=O)N(C)c2cnc(Nc3ccc(C(=O)N[C@H]4CC[C@H](N5CCN(CC6CC6)CC5)CC4)cc3OC)nc2N1C(C)C` [VOLASERTIB] the Kd was > 30 µM (inactive).
In the case of `CCn1c(=O)c(-c2cc[nH]n2)cc2c(C)nc(N)nc21` [VOXTALISIB], the Kd was > 30 µM (inactive).
`O=C(Nc1ccc(-c2ccnc(Nc3ccc(N4CCOCC4)cc3)n2)cc1)C1CCCN1` (stereo not given) [XL-019] was tested, and the Kd was > 30 µM (inactive).

The molecules below were run against T3, Serine/threonine-protein kinase PLK4 (Homo sapiens, UniProt O00444).
T3 sequence (O00444 whole entry): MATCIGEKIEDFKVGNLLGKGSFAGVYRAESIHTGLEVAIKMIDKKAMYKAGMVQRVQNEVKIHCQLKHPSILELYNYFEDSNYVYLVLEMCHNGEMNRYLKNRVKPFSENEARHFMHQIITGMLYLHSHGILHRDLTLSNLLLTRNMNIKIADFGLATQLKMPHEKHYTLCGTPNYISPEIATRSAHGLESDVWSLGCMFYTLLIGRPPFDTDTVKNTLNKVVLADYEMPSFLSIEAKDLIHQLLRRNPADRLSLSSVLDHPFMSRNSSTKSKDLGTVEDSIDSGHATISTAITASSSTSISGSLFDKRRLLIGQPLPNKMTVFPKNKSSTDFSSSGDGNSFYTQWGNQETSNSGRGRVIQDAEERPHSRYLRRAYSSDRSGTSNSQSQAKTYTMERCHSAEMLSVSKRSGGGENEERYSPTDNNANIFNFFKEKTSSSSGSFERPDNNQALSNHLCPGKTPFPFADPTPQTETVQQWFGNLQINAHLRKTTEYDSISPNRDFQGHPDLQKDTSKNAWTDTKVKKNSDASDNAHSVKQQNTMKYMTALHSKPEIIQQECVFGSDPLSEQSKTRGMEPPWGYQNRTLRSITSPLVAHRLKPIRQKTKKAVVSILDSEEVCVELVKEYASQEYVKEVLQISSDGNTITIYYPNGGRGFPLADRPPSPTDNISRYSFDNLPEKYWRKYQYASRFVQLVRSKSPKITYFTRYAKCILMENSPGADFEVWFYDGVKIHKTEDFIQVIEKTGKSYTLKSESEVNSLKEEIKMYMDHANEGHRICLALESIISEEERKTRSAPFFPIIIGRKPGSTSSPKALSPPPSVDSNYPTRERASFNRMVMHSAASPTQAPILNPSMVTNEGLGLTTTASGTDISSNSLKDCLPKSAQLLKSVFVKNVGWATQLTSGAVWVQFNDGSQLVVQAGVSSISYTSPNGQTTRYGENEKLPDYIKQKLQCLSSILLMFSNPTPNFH
With `CC(C)Nc1cc(-c2c[nH]c(C(=O)N[C@H](CO)c3cccc(Cl)c3)c2)c(Cl)cn1` [ULIXERTINIB] the Kd was > 30 µM (inactive).
In the case of `CCCS(=O)(=O)Nc1ccc(F)c(C(=O)c2c[nH]c3ncc(-c4ccc(Cl)cc4)cc23)c1F` [VEMURAFENIB], the Kd was > 30 µM (inactive).
For `CC[C@@H]1C(=O)N(C)c2cnc(Nc3ccc(C(=O)N[C@H]4CC[C@H](N5CCN(CC6CC6)CC5)CC4)cc3OC)nc2N1C(C)C` [VOLASERTIB], the Kd was > 30 µM (inactive).
`CCn1c(=O)c(-c2cc[nH]n2)cc2c(C)nc(N)nc21` [VOXTALISIB] was tested, and the Kd was > 30 µM (inactive).
In the case of `O=C(Nc1ccc(-c2ccnc(Nc3ccc(N4CCOCC4)cc3)n2)cc1)C1CCCN1` (stereo not given) [XL-019], the Kd was 0.908 µM (active).

These molecules were tested against Receptor-interacting serine/threonine-protein kinase 3 (Homo sapiens, UniProt Q9Y572).
Sequence of Receptor-interacting serine/threonine-protein kinase 3 (Q9Y572 whole entry): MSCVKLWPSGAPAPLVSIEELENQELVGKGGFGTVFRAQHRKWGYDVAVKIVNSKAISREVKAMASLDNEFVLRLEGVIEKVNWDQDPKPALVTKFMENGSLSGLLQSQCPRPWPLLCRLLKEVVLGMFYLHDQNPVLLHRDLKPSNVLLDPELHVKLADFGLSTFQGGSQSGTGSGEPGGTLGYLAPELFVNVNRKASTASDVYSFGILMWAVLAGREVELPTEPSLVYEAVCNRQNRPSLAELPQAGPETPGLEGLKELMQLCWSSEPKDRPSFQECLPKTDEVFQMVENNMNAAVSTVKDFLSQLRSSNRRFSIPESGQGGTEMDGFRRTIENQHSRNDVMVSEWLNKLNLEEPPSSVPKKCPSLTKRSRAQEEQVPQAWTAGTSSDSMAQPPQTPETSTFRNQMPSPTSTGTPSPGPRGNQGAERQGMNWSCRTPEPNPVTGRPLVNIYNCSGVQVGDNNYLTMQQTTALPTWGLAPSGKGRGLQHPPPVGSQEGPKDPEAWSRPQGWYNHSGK
For `CC(C)Nc1cc(-c2c[nH]c(C(=O)N[C@H](CO)c3cccc(Cl)c3)c2)c(Cl)cn1` [ULIXERTINIB], the Kd was > 30 µM (inactive).
For `CCCS(=O)(=O)Nc1ccc(F)c(C(=O)c2c[nH]c3ncc(-c4ccc(Cl)cc4)cc23)c1F` [VEMURAFENIB], the Kd was 2.08 µM (active).
`CC[C@@H]1C(=O)N(C)c2cnc(Nc3ccc(C(=O)N[C@H]4CC[C@H](N5CCN(CC6CC6)CC5)CC4)cc3OC)nc2N1C(C)C` [VOLASERTIB] was tested, and the Kd was > 30 µM (inactive).
In the case of `CCn1c(=O)c(-c2cc[nH]n2)cc2c(C)nc(N)nc21` [VOXTALISIB], the Kd was > 30 µM (inactive).
With `O=C(Nc1ccc(-c2ccnc(Nc3ccc(N4CCOCC4)cc3)n2)cc1)C1CCCN1` (stereo not given) [XL-019] the Kd was > 30 µM (inactive).
